{"source": "patent US20100278835A1", "about": "“NOVEL COMPOUNDS 660” (ASTRAZENECA UK LIMITED, priority 2009, published 2010)", "key": {"Thermodynamic solubility": {"assay": "Thermodynamic solubility", "assay_type": "physicochemical", "protocol": "A known amount of the test compound was stirred in 0.1M phosphate buffer pH 7.4 at constant temperature (25° C.) for 24 h. The supernatant was then separated from un-dissolved material by double centrifugation, and subsequently analysed and quantified against a standard of known concentration in DMSO using generic HPLC-UV methodology coupled with mass spectral peak identification. Data are also included for a reference quinazolin-2,4-dione derivative disclosed in WO 03/053344."}, "RSV RSS strain": {"test_system": "RSV RSS strain", "assay": "ELISA assay of antiviral activity against RSV (reduction in RSV protein expression)", "assay_type": "cell-based", "conditions": "Hep-2 cells infected with RSV RSS strain, multiplicity of infection 0.02, 3 days, concentration required to inhibit RSV protein expression by 50%", "protocol": "The antiviral activity of these compounds against RSV was determined in an ELISA assay. […] ELISA assays were set up by seeding 96-well plates with 5×10^3 Hep-2 cells per well in 100 μl DMEM containing 10% FBS for 24 h. Compound dilutions were prepared in 0.5% DMSO and 50 μl/well was added to the assay plates, the plates were incubated at 37° C. in 5% CO2 for one hour. Cells were infected with 50 μl/well RSV RSS strain at a multiplicity of infection of 0.02 and were incubated at 37° C. in 5% CO2 for 3 days. Cells were then fixed and permeabilised with 75%/25% methanol acetone and blocked with 2% Marvel™, 0.05% Tween for one hour. Plates were then incubated in the presence of a 1:4000 dilution of […] polyclonal antibody (Millipore, AB1128) followed by a 1:1000 dilution of rabbit anti-goat, horseradish peroxidase (DAKO, PO449) labelled secondary antibody. The plates were developed with O-phenylenediamine in the presence of hydrogen peroxide. The antiviral activity of the compounds is presented as an IC50, the concentration required to inhibit RSV protein expression by 50%."}, "[1]": {"conditions": "aqueous buffer, thermodynamic from solid, 0.1M phosphate buffer pH 7.4, 25° C., 24 h, HPLC-UV"}, "[2]": {"conditions": "human respiratory syncytial virus, 72 h"}}, "data": [{"molecule": "CC(C)CCn1c(CN2C(=O)N(C3CC3)Cc3ccccc32)nc2cc(CN)ccc21", "note": "[Example 7, 1-[[5-(Aminomethyl)-1-isopentyl-benzimidazol-2-yl]methyl]-3-cyclopropyl-4H-quinazolin-2-one]", "values": [{"measurement": "solubility thermodynamic at 24 h", "setting": "Thermodynamic solubility; [1]", "result": 2300, "unit": "µM"}, {"measurement": "IC50", "setting": "RSV RSS strain; [2]", "result": 1.7, "unit": "nM"}]}, {"molecule": "CC(C)CCn1c(CN2C(=O)N(C3CC3)Cc3ccccc32)nc2cc(C(=N)N)ccc21", "note": "[Example 35, 2-[(3-cyclopropyl-2-oxo-4H-quinazolin-1-yl)methyl]-1-isopentyl-benzimidazole-5-carboxamidine]", "values": [{"measurement": "solubility thermodynamic at 24 h", "setting": "Thermodynamic solubility; [1]", "result": 808, "unit": "µM"}, {"measurement": "IC50", "setting": "RSV RSS strain; [2]", "result": 3.2, "unit": "nM"}]}, {"molecule": "CC(C)CCn1c(CN2C(=O)N(C)Cc3ccccc32)nc2cc(CN)ccc21", "note": "[Example 5, 1-[[5-(aminomethyl)-1-isopentyl-benzimidazol-2-yl]methyl]-3-methyl-4H-quinazolin-2-one]", "values": [{"measurement": "solubility thermodynamic at 24 h", "setting": "Thermodynamic solubility; [1]", "result": 2290, "unit": "µM"}, {"measurement": "IC50", "setting": "RSV RSS strain; [2]", "result": 8.9, "unit": "nM"}]}, {"molecule": "NCc1ccc2c(c1)nc(CN1C(=O)N(C3CC3)Cc3ccccc31)n2CCCC(F)(F)F", "note": "[Example 28, 1-[[5-(Aminomethyl)-1-(4,4,4-trifluorobutyl)benzimidazol-2-yl]methyl]-3-cyclopropyl-4H-quinazolin-2-one]", "values": [{"measurement": "solubility thermodynamic at 24 h", "setting": "Thermodynamic solubility; [1]", "result": 289, "unit": "µM"}, {"measurement": "IC50", "setting": "RSV RSS strain; [2]", "result": 0.5, "unit": "nM"}]}, {"molecule": "COCCn1c(=O)c2ccccc2n(Cc2nc3cc(CN)ccc3n2CCC(C)C)c1=O", "note": "[reference compound]", "values": [{"measurement": "solubility thermodynamic at 24 h", "setting": "Thermodynamic solubility; [1]", "result": 36, "unit": "µM"}]}, {"molecule": "COCCN1Cc2ccccc2N(Cc2nc3cc(CN)ccc3n2CCC(C)C)C1=O", "note": "[Example 13, 1-[[5-(aminomethyl)-1-isopentyl-benzimidazol-2-yl]methyl]-3-(2-methoxyethyl)-4H-quinazolin-2-one]", "values": [{"measurement": "solubility thermodynamic at 24 h", "setting": "Thermodynamic solubility; [1]", "result": 1560, "unit": "µM"}, {"measurement": "IC50", "setting": "RSV RSS strain; [2]", "result": 101, "unit": "nM"}]}, {"molecule": "CC(C)CCn1c(Cn2c(=O)n(C)c(=O)c3ccccc32)nc2cc(CN)ccc21", "note": "[reference compound]", "values": [{"measurement": "solubility thermodynamic at 24 h", "setting": "Thermodynamic solubility; [1]", "result": 16, "unit": "µM"}]}, {"molecule": "NCc1ccc2c(c1)nc(Cn1c(=O)n(C3CC3)c(=O)c3ccccc31)n2CCCC(F)(F)F", "note": "[reference compound]", "values": [{"measurement": "solubility thermodynamic at 24 h", "setting": "Thermodynamic solubility; [1]", "result": 90, "unit": "µM"}]}, {"molecule": "CC(C)CCn1c(CN2C(=O)N(C3CC3)C(C)c3ccccc32)nc2cc(CN)ccc21", "note": "(stereo not drawn) [Example 20, 1-[[5-(aminomethyl)-1-isopentyl-benzimidazol-2-yl]methyl]-3-cyclopropyl-4-methyl-4H-quinazolin-2-one]", "values": [{"measurement": "solubility thermodynamic at 24 h", "setting": "Thermodynamic solubility; [1]", "result": 654, "unit": "µM"}, {"measurement": "IC50", "setting": "RSV RSS strain; [2]", "result": 9.4, "unit": "nM"}]}, {"molecule": "CC(C)CCN1Cc2ccccc2N(Cc2nc3cc(CN)ccc3n2CCC(C)C)C1=O", "note": "[Example 14, 1-[[5-(aminomethyl)-1-isopentyl-benzimidazol-2-yl]methyl]-3-isopentyl-4H-quinazolin-2-one]", "values": [{"measurement": "IC50", "setting": "RSV RSS strain", "result": 2.1, "unit": "nM"}]}, {"molecule": "CC(C)CCn1c(CN2C(=O)N(C3CC3)Cc3c(F)cccc32)nc2cc(CN)ccc21", "note": "[Example 23, 1-[[5-(aminomethyl)-1-isopentyl-benzimidazol-2-yl]methyl]-3-cyclopropyl-5-fluoro-4H-quinazolin-2-one]", "values": [{"measurement": "solubility thermodynamic at 24 h", "setting": "Thermodynamic solubility; [1]", "result": 242, "unit": "µM"}, {"measurement": "IC50", "setting": "RSV RSS strain; [2]", "result": 7.7, "unit": "nM"}]}, {"molecule": "CC(C)CCN1Cc2ccccc2N(Cc2nc3ccccc3n2CCC(C)C)C1=O", "note": "[Example 2, 3-isopentyl-1-[(1-isopentylbenzimidazol-2-yl)methyl]-4H-quinazolin-2-one]", "values": [{"measurement": "IC50", "setting": "RSV RSS strain; [2]", "result": "> 1000", "unit": "nM"}]}, {"molecule": "Cc1cc2c(cc1CN)nc(CN1C(=O)N(C3CC3)Cc3ccccc31)n2CCC(C)C", "note": "[Example 46, 1-[[5-(Aminomethyl)-1-isopentyl-6-methyl-benzimidazol-2-yl]methyl]-3-cyclopropyl-4H-quinazolin-2-one]", "values": [{"measurement": "solubility thermodynamic at 24 h", "setting": "Thermodynamic solubility; [1]", "result": 831, "unit": "µM"}, {"measurement": "IC50", "setting": "RSV RSS strain; [2]", "result": 1.5, "unit": "nM"}]}, {"molecule": "1-[[5-(aminomethyl)-1-isopentyl-benzimidazol-2-yl]methyl]-3-cyclopropyl-4,4-dimethyl-quinazolin-2-one [Example 21]", "values": [{"measurement": "solubility thermodynamic at 24 h", "setting": "Thermodynamic solubility; pH 7.4", "result": 1050, "unit": "µM"}, {"measurement": "IC50", "setting": "RSV RSS strain", "result": 57, "unit": "nM"}]}, {"molecule": "CC(C)CCn1c(Cn2c(=O)n(C3CC3)c(=O)c3ccccc32)nc2cc(CN)ccc21", "note": "[reference compound]", "values": [{"measurement": "solubility thermodynamic at 24 h", "setting": "Thermodynamic solubility; [1]", "result": 70, "unit": "µM"}]}]}
